16 compounds from patent US11230556B2 (Merck Sharp & Dohme Corp., priority 2016, dated 2022) can be followed below.

The assay concerns the target T1, human M4 muscarinic acetylcholine receptor (Homo sapiens, UniProt P08173).
T1 construct: expressed in transfected cells; host or cells: CHO-K1
T1 sequence (P08173 1-479): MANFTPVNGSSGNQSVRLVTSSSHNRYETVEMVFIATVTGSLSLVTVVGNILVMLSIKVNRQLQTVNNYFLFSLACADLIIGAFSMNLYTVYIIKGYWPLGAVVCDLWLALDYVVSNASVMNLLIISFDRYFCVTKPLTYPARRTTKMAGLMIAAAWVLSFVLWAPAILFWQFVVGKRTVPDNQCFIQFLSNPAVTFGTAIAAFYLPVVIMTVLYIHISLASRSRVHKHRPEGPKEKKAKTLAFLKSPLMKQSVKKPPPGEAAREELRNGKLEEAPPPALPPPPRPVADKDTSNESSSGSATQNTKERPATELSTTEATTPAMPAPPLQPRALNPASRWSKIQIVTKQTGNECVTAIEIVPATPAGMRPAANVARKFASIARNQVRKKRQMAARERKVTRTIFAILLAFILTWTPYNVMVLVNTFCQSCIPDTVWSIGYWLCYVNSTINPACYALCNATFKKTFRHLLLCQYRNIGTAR
As to the kind of experiment: human FLIPR-based M4 PAM assay (CHO-K1 cells with human M4 receptor and Gαqi5, calcium dye fluorescence, acetylcholine at 20% of maximum response). In kind it is cell-based. The conditions noted are these: inflection point (IP) of 4 parameter logistic dose response curve, human M4 receptor + Gαqi5, FLIPR Tetra. Here is the method: In a typical experiment the M4 muscarinic acetylcholine receptor modulating activity of the compounds of the present invention was determined in accordance with the following experimental method. CHO-K1 cells stably transfected with human M4 receptor and chimeric G-protein Gαqi5 (Coward P, et al., Analytical Biochemistry, 270:242-248 (1999)) are thawed from liquid N2 storage, resuspended in growth medium, plated in black, clear bottom 384 well plates, and incubated 16-20 hours at 37° C., 5% CO2. On the day of assay, growth medium is removed, the cells are washed 2 times with wash buffer, and cells are incubated in dye loading buffer at 37° C., 5% CO2 for ˜1 hour. Following dye loading the cell plates are placed in a FLIPR Tetra instrument and while monitoring dye fluorescence (excitation […]), 10 uL of test substance at increasing concentrations is added, and fluorescence values are recorded for 4 min. Next, 10 uL of acetylcholine is added (final concentration calculated so as to achieve 20% of the maximum acetycholine response), and the fluorescence reading is continued for 3.5 min. In some cases, a third addition of acetylcholine (final concentration calculated to achieve 70% of the maximal acetylcholine response) is performed. The resulting dose response curves are fit to a 4 parameter logistic equation and the final result is determined as the inflection point (IP) of the curve
CHO-K1 cells stably transfected with human M4 receptor and chimeric G-protein Gαqi5 are thawed from liquid N2 storage, resuspended in growth medium, plated in black, clear bottom 384 well plates, and incubated 16-20 hours at 37° C., 5% CO2.
On the day of assay, growth medium is removed, the cells are washed 2 times with wash buffer, and cells are incubated in dye loading buffer at 37° C., 5% CO2 for ˜1 h. Following dye loading the cell plates are placed in a FLIPR Tetra instrument and while monitoring dye fluorescence ([…]), 10 uL of test substance at increasing concentrations is added, and fluorescence values are recorded for 4 min. Next, 10 uL of acetylcholine is added (final concentration calculated so as to achieve 20% of the maximum acetycholine response), and the fluorescence reading is continued for 3.5 min. In some cases, a third addition of acetylcholine (final concentration calculated to achieve 70% of the maximal acetylcholine response) is performed.
What is called EC50 is the midpoint of the concentration-response curve. As for `COc1ccc(OC2CCN(c3nc4c(cc3C)C(=O)OC4C)CC2)cn1` (racemic) [Example 29B, (R)-2-(4-((6-Methoxypyridin-3-yl)oxy)piperidin-1-yl)-3,7-dimethylfuro[3,4-b]pyridin-5(7H)-one and (S)-2-(4-((6-methoxypyridin-3-yl)oxy)piperidin-1-yl)-3,7-dimethylfuro[3,4-b]pyridin-5(7H)-one], the EC50 came to 54 nM.
Take `COc1ccc(OC2CCN(c3nc4c(cc3C)C(O)CC4)CC2)cn1` (single isomer, unassigned) [Example 71A]: the EC50 was 3080 nM.
Take `COc1ccc(OC2CCN(c3nc4c(cc3C)C(O)CC4)CC2)cn1` (single isomer, unassigned) [Example 71B]: the EC50 came out at 1050 nM.
Regarding `Cc1cc2c(nc1N1CCC(Oc3ccc4c(c3)COC4)CC1)C1COCCN1C2=O` (single isomer, unassigned) [Example 81A], the EC50 turned out to be 29 nM.
Take `Cc1cc2c(nc1N1CCC(Oc3ccc4c(c3)COC4)CC1)C1COCCN1C2=O` (single isomer, unassigned) [Example 81B]: the concentration for a half-maximal effect (EC50) came to 163 nM.
Consider `Cc1cc2c(nc1N1CCC(Oc3ccc4c(c3)COC4)CC1)C1CNCCN1C2=O` (single isomer, unassigned) [Example 83A], for which the EC50 was 103 nM.
For `COc1ccc(OC2CCN(c3nc4c(cc3C)CNC4=O)CC2)cn1` [Example 1, (4-((6-Methoxypyridin-3-yl)oxy)piperidin-1-yl)-3-methyl-5H-pyrrolo[3,4-b]pyridin-7(6H)-one], the EC50 was 193 nM.
`Cc1cn2c(=O)[nH]nc2nc1N1CCC(Oc2ccc3c(c2)COC3)CC1` [Example 2, 7-(4-((1,3-Dihydro-2-benzofuran-5-yl)oxy)piperidin-1-yl)-6-methyl-[1,2,4]triazolo[4,3-a]pyrimidin-3(2H)-one]: the EC50 is 20 nM.
On to `Cc1cn2c(=O)n(C)nc2nc1N1CCC(OCC2(C)CC2)CC1` [Example 3, 2,6-Dimethyl-7-(4-((1-methylcyclopropyl)methoxy)piperidin-1-yl)-[1,2,4]triazolo[4,3-a]pyrimidin-3(2H)-one], for which the concentration giving a half-maximal response (EC50) worked out at 79 nM.
As for `COc1ccc(OC2CCN(c3nc4n[nH]c(=O)n4cc3C)CC2)cn1` [Example 4], the figure is 55 nM; as for `Cc1cn2c(=O)[nH]nc2nc1N1CC[C@@H](Oc2ccc3c(cnn3C)c2)[C@@H](F)C1` [Example 5, 7-((3S,4R)-3-fluoro-4-((1-methyl-1H-indazol-5-yl)oxy)piperidin-1-yl)-6-methyl-[1,2,4]triazolo[4,3-a]pyrimidin-3(2H)-one], 62 nM; as for `Cc1cn2c(=O)[nH]nc2nc1N1CCC(Oc2ccc3c(c2)C(=O)N(C2CC2)C3)CC1` [Example 6, 7-(4-((2-cyclopropyl-3-oxoisoindolin-5-yl)oxy)piperidin-l-yl)-6-methyl-[1,2,4]triazolo[4,3-a]pyrimidin-3(2H)-one], 168 nM.
Consider `Cc1cn2c(=O)[nH]nc2nc1N1CC[C@@H](Oc2ccc3c(cnn3C)c2)[C@H](F)C1` [Example 7, 7-((3R,4R)-3-fluoro-4-((1-methyl-1H-indazol-5-yl)oxy)piperidin-1-yl)-6-methyl-[1,2,4]triazolo[4,3-a]pyrimidin-3(2H)-one], for which the 50% effective concentration (EC50) was found to be 138 nM.
Consider `Cc1cn2c(=O)[nH]nc2nc1N1CCC(OCC2CCCC2)CC1` [Example 8, 7-(4-(cyclopentylmethoxy)piperidin-1-yl)-6-methyl-[1,2,4]triazolo[4,3-a]pyrimidin-3(2H)-one], for which the EC50 was 242 nM.
As for `Cc1cn2c(=O)n(C)nc2nc1N1CCC(Oc2ccc3c(cnn3C)c2)CC1` [Example 9, 2,6-dimethyl-7-(4-((1-methyl-1H-indazol-5-yl)oxy)piperidin-1-yl)-[1,2,4]triazolo[4,3-a]pyrimidin-3(2H)-one], the figure is 112 nM; as for `Cc1cn2c(=O)n(C)nc2nc1N1CC[C@@H](Oc2ccc3c(cnn3C)c2)[C@@H](F)C1` [Example 10, 7-((3S,4R)-3-fluoro-4-((1-methyl-1H-indazol-5-yl)oxy)piperidin-1-yl)-2,6-dimethyl-[1,2,4]triazolo[4,3-a]pyrimidin-3(2H)-one], 81 nM.
